# The Kinase Knowledgebase extract (Sharma et al. 2016)
# Biological target: PIK3CA (human) (UniProt P42336)
# Test: Assessment of PIK3CA Kinase Activity
# Sequence of PIK3CA (human) (P42336 whole entry, looked up): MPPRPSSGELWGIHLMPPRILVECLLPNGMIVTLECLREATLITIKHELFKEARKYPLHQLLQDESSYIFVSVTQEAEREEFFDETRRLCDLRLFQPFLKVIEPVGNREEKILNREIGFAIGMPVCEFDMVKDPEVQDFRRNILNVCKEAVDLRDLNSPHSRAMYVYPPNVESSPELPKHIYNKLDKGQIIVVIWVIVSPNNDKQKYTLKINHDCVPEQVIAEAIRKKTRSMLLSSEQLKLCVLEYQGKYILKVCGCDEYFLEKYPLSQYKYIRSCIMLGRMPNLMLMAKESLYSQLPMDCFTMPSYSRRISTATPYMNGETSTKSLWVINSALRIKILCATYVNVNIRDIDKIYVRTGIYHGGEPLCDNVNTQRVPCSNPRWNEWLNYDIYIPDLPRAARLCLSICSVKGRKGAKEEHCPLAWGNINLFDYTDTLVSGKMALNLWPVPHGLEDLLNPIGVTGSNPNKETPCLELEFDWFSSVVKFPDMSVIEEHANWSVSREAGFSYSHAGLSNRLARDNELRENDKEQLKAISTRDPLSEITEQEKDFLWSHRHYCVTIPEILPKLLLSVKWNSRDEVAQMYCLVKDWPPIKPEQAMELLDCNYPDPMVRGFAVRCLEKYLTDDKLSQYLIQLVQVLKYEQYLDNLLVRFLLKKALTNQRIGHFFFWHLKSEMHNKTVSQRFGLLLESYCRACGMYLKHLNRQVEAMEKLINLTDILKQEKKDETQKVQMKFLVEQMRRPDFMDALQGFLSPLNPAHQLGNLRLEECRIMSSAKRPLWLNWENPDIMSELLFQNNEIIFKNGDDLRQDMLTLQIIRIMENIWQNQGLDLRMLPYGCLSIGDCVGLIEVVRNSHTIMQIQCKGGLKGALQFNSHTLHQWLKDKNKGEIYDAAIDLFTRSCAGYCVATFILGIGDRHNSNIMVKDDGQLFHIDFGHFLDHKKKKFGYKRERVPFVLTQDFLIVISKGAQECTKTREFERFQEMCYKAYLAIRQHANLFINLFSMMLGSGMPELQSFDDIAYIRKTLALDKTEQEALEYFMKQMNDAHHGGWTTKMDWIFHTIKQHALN
row,IC50,SMILES
1,< 1 µM,CC(C)n1ncnc1-c1cn2c(n1)-c1cnc(N3CC[C@H](C)[C@H]3C(N)=O)cc1OCC2
2,< 1 µM,CC(C)(O)CN1CC(c2ccc3c(c2)OCCc2cn(-c4ncnn4-c4ccc(F)cc4F)nc2-3)C1
3,< 1 µM,CC(C)n1ncnc1-c1cn2c(n1)-c1ccc(-c3ccc(N)nc3)cc1OCC2
4,< 1 µM,CC(Cc1ccc2c(c1)OCCn1cc(-c3ncnn3C(C)C)nc1-2)C(N)=O (centres undefined)
5,< 1 µM,CC(C)(CO)NC(=O)c1ccc2c(c1)-c1nc(-c3ncnn3CC(F)(F)F)cn1CCO2
6,< 1 µM,CNC(=O)CN1CCN(c2ccc3c(n2)OCCn2cc(-c4ncnn4C(C)C)nc2-3)CC1
7,< 1 µM,Nc1nc(-c2cn3c(n2)-c2cc(C(F)(F)F)ccc2OCC3)n(CC(F)(F)F)n1
8,< 1 µM,Cc1nc(-c2cn3c(n2)-c2ccc(-c4cncc(F)c4)cc2OCC3)n(C(C)C)n1
9,< 1 µM,CC(C)n1ncnc1-c1cn2c(n1)-c1cc(-c3ccc[nH]c3=O)ccc1OCC2
10,< 1 µM,Cc1nc(-c2cn3c(n2)-c2ccc(CC(N)=O)cc2OCC3)n(C(C)C)n1
11,< 1 µM,CC(C)n1ncnc1-c1cn2c(n1)-c1ccc(C3=NC(C)(C)CO3)cc1OCC2
12,< 1 µM,NC(=O)[C@H](CO)Oc1ccc2c(c1)OCCn1cc(-c3ncnn3CC(F)(F)F)nc1-2
13,< 1 µM,CC(C)n1nc(N)nc1-c1cn2c(n1)-c1cc(-c3ccccc3)ccc1OCC2
14,< 1 µM,CC(C)n1ncnc1-c1cn2c(n1)-c1cnc(NCC(N)=O)cc1OCC2
15,< 1 µM,CCOC(=O)C(C)(C)n1cc(-c2ccc3c(c2)OCCn2cc(-c4nc(C)nn4C(C)C)nc2-3)cn1
16,< 1 µM,CC(C)n1ncnc1-c1cn2c(n1)-c1ccc(C3CCN(CC(=O)NC(C)(C)C)CC3)cc1OCC2
17,< 1 µM,CC(C)n1ncnc1-c1cn2c(n1)-c1cnc(N3CC[C@H](O)[C@H]3C(N)=O)cc1OCC2
18,< 1 µM,CC(C)n1ncnc1-c1cn2c(n1)-c1ccc(COC(N)=O)cc1OCC2
19,< 1 µM,CC(C)n1ccnc1-c1cn2c(n1)-c1cnc(N3CCC[C@H]3C(N)=O)cc1OCC2
20,< 1 µM,CO[C@@H]1C[C@@H](C(N)=O)N(c2cc3c(cn2)-c2nc(-c4ncnn4C(C)C)cn2CCO3)C1
21,< 1 µM,Cc1nc(-c2cn3c(n2)-c2cnc(N4C[C@@H](O)C[C@H]4C(N)=O)cc2OCC3)n(C(C)C)n1
22,< 1 µM,OCc1nc(-c2cn3c(n2)-c2cnc(Cl)cc2OCC3)n(CC(F)(F)F)n1
23,< 1 µM,Cc1nc(-c2cn3c(n2)-c2cc(-c4ccc(=O)[nH]c4)ccc2OCC3)n(C(C)C)n1

row,IC50,SMILES
1,< 1 µM,COc1ccc2c(c1)OCCn1cc(-c3ncnn3C(C)C)nc1-2
2,< 1 µM,CC(C)(CO)NC(=O)c1ccc2c(c1)-c1nc(-c3ncnn3-c3ccccc3Cl)cn1CCO2
3,< 1 µM,Cc1nc(-c2cn3c(n2)-c2ccc(-c4cnn(C5CN(C(=O)[C@H](C)O)C5)c4)cc2OCC3)n(C(C)C)n1
4,< 1 µM,CC(C)n1ncnc1-c1cn2c(n1)-c1cc(NCC(O)CO)ncc1OCC2 (centres undefined)
5,< 1 µM,Cc1nc(-c2cn3c(n2)-c2cnc(NCC(=O)O)cc2OCC3)n(C(C)C)n1
6,< 1 µM,Cc1nc(-c2cn3c(n2)-c2ccc(-c4cnc(N)nc4)cc2OCC3)n(C(C)C)n1
7,< 1 µM,CC(C)n1ncnc1-c1cn2c(n1)-c1cc(N3CCNC(=O)C3)ncc1OCC2
8,< 1 µM,CC(C)n1ncnc1-c1cc2n(n1)-c1cc(C3CN(CCS(C)(=O)=O)C3)ccc1OCC2
9,< 1 µM,Cc1cn(C(C)C)c(-c2cn3c(n2)-c2ccc(-c4cnn(CC(C)(C)O)c4)cc2OCC3)n1
10,< 1 µM,CC(C)n1ncnc1-c1cn2c(n1)-c1cnc(N3CCN(CC(=O)N(C)C)CC3)cc1OCC2
11,< 1 µM,Cc1nc(-c2cn3c(n2)-c2ccc(N)cc2OCC3)n(C(C)C)n1
12,< 1 µM,CC(C)n1ncnc1-c1cn2c(n1)-c1cc(C(=O)N3CCC(C(C)(C)O)CC3)ccc1OCC2
13,< 1 µM,CCN1CCC(c2ccc3c(c2)OCCn2cc(-c4ncnn4C(C)C)nc2-3)CC1
14,< 1 µM,CC(C)n1ncnc1-c1cn2c(n1)-c1cnc(N3CCC(CO)CC3)cc1OCC2
15,< 1 µM,CC(C)N1CC(NC(=O)c2ccc3c(c2)-n2nc(-c4ncnn4C(C)C)cc2CCO3)C1
16,< 1 µM,Oc1ccc2c(c1)OCCn1cc(-c3ncnn3CC(F)(F)F)nc1-2
17,< 1 µM,CC(C)Oc1ccc2c(c1)OCCn1cc(-c3ncnn3C(C)C)nc1-2
18,< 1 µM,COC[C@H](Nc1ccc2c(c1)OCCn1cc(-c3ncnn3CC(F)(F)F)nc1-2)C(N)=O
19,< 1 µM,CNC(=O)c1ccc2c(c1)OCCn1cc(-c3ncnn3-c3ccc(F)cc3F)nc1-2
20,< 1 µM,CC(C)n1ncnc1-c1cn2c(n1)-c1cnc(N3CCC[C@@]3(C)C(N)=O)cc1OCC2
21,< 1 µM,CC(C)n1ncnc1-c1cn2c(n1)-c1ccc(-c3cnc(N)nc3)cc1OCC2
22,< 1 µM,CNC(=O)CN1CCC(c2ccc3c(c2)OCCn2cc(-c4nc(C)nn4C(C)C)nc2-3)CC1
23,< 1 µM,COC(=O)c1ccc2c(c1)OCCn1cc(-c3cccc(C(F)(F)F)c3)nc1-2

row,IC50,SMILES
1,< 1 µM,CC(C)n1ncnc1-c1cn2c(n1)-c1ccc(C3CCN(CCS(C)(=O)=O)CC3)cc1OCC2
2,< 1 µM,CC(C)n1ncnc1-c1cn2c(n1)-c1ccc(N3CCCCC3C(N)=O)cc1OCC2 (centres undefined)
3,< 1 µM,COC(=O)C(C)Cn1cc(-c2ccc3c(c2)OCCn2cc(-c4nc(C)nn4C(C)C)nc2-3)cn1 (centres undefined)
4,< 1 µM,Cc1nc(-c2cn3c(n2)-c2ccc(-c4cnn(CC(C)(C)O)c4)cc2OCC3)n(C(C)C)n1
5,< 1 µM,CC(C)n1ncnc1-c1cn2c(n1)-c1cnc(N3CC=C[C@H]3C(N)=O)cc1OCC2
6,< 1 µM,CC(C)n1ncnc1-c1cn2c(n1)-c1ccc(N3CC(F)(F)C[C@H]3C(N)=O)cc1OCC2
7,< 1 µM,CC(C)n1nccc1-c1cn2c(n1)-c1ccc(C(N)=O)cc1OCC2
8,< 1 µM,NC(=O)[C@@H]1CCCN1c1ccc2c(c1)OCCn1cc(-c3ncnn3CC(F)(F)F)nc1-2
9,< 1 µM,CC(C)n1ncnc1-c1cn2c(n1)-c1ccc(C3CCN(C(C)(C)CO)CC3)cc1OCC2
10,< 1 µM,CC(C)n1ncnc1-c1cn2c(n1)-c1cc(-c3ccccc3)ccc1OCC2
11,< 1 µM,CO[C@H]1CCN(c2cc3c(cn2)-c2nc(-c4ncnn4C(C)C)cn2CCO3)[C@@H]1C(N)=O
12,< 1 µM,CC(C)n1ncnc1-c1cn2c(n1)-c1cnc(N3CCCC3)cc1OCC2
13,< 1 µM,Cc1nc(-c2cn3c(n2)-c2cnc(N4CC(F)(F)C[C@H]4C(N)=O)cc2OCC3)n(C(C)C)n1
14,< 1 µM,CC(C)n1ncnc1-c1cn2c(n1)-c1ccc(-c3cncn3CCO)cc1OCC2
15,< 1 µM,Cc1ncc(-c2ccc3c(c2)OCCn2cc(-c4ncnn4C(C)C)nc2-3)n1CCO
16,< 1 µM,COc1ccc2c(c1)OCCn1cc(-c3nc(C)nn3C(C)C)nc1-2
17,< 1 µM,FC(F)(F)Cn1ncnc1-c1cc2n(n1)-c1cc(CNc3cnccn3)ccc1OCC2
18,< 1 µM,CC(C)n1nccc1-c1cn2c(n1)-c1cnc(N3CCC[C@H]3C(N)=O)cc1OCC2
19,< 1 µM,CC(C)n1ncnc1-c1cn2c(n1)-c1cnc(Cl)cc1OCC2
20,< 1 µM,CC(C)n1nc(CO)nc1-c1cn2c(n1)-c1cnc(N3CC(F)(F)C3)cc1OCC2
21,< 1 µM,COC(=O)c1ccc2c(c1)OCCn1cc(-c3cccc(C(C)C)c3)nc1-2
22,< 1 µM,Cc1nc(-c2cn3c(n2)-c2ccc(CNCC(C)(C)O)cc2OCC3)n(-c2ccc(F)cc2F)n1

row,SMILES,IC50
1,CC(C)n1ncnc1-c1cn2c(n1)-c1ccc([C@@H]3C[C@H]4CC[C@@H](C3)N4CC(N)=O)cc1OCC2,< 1 µM
